Test results taken from PMC9127750, “Structure-based design of CDC42 effector interaction inhibitors for the treatment of cancer” (Cell reports, 2022).
Values joined by “and” are separate entries in the source; they are usually repeats but may differ in a detail not shown here. Equal values may be shown once.

Test system: WM3248 melanoma cells, 486 antibodies
Assay: Reverse phase protein arrays (RPPA)
Type: cell-based, Human
Details: 10 uM, single replicates
Source text: Pellets were snap frozen in liquid nitrogen and shipped to MD Anderson Cancer Center core RPPA facility for RPPA analysis (Table S5). Three biological replicates for each sample were generated.
Nomenclatures on the RPPA heatmaps: name_of_antibody.species_of_antibody.status_of_antibody. V - antibody validated; C - validation of antibody in progress; Q - antibody nonspecific; E – under evaluation; antibodies raised in M - mouse, G - goat, R - rabbit, or T - rat.

Which results are given for `CN(C)c1cccc(Nc2cc(-c3ccccc3)nc(C3CCNCC3)n2)c1` [ARN22089, N1,N1-dimethyl-N3-(6-phenyl-2-(piperidin-4-yl)pyrimidin-4-yl)benzene-1,3-diamine]?
RPPA PDHA1.R.V: 0.868 and 1.050; RPPA PDHK1.R.C: 0.847 and 0.989 and 1.019; RPPA PDK1.R.V: 1.007 and 1.121 and 1.006; RPPA PDK1_pS241.R.V: 0.935 and 0.909 and 0.981; RPPA PEA.15.R.V: 0.898 and 0.934 (2×); RPPA PEA.15_pS116.R.V: 0.987; RPPA PERK.R.V: 0.972 and 0.874; RPPA PGM1.R.V: 1.007 and 0.983 and 1.004; RPPA PHGDH.R.C: 0.889 and 1.016; RPPA PHLPP.R.V: 1.515 and 0.856 and 0.877; RPPA PI3K.p85.R.C: 1.113 and 1.033; RPPA PI3K.p110.a.R.C: 0.828 and 0.921 and 0.963; RPPA PI3K.p110.b.M.C: 0.981 and 0.937; RPPA PKA.a.R.V: 1.016 and 0.756 and 0.860; RPPA PKC.a.b.II_pT638_T641.R.V: 0.761 and 0.940 and 1.029; RPPA PKC.b.II_pS660.R.V: 0.960 and 1.055; RPPA PKCa.R.V: 1.576 and 0.715 and 0.684; RPPA PKM2.R.C: 0.940 and 0.831 and 1.047; RPPA PLC.gamma1.R.V: 1.302 and 0.921 and 1.027; RPPA PLC.gamma1_pS1248.R.V: 1.246 and 0.852 and 0.899; RPPA PLC.gamma2_pY759.R.V: 1.055 and 1.008 and 1.052; RPPA PLK1.R.C: 1.052 and 0.570; RPPA PMS2.R.V: 1.013 and 1.061 and 1.035; RPPA PR.R.V: 1.051 and 1.057 and 1.083; RPPA PRAS40.M.C: 1.053 and 1.125 and 0.970; RPPA PRAS40_pT246.R.V: 0.997 and 0.945 and 0.929; RPPA PRC1_pT481.R.C: 1.013; RPPA PREX1.R.V: 0.847 and 0.880 and 1.018; RPPA PTEN.R.V: 0.967 and 0.919; RPPA PTPN12.R.V: 0.922 and 0.923; RPPA PYGB.R.V: 1.000 and 1.018; RPPA PYGM.M.C: 0.933 and 0.899 and 1.244; RPPA Patched.R.C: 0.891 and 1.022 and 1.001; RPPA Paxillin.R.C: 0.651 and 0.874 and 0.967; RPPA Pdcd4.R.C: 1.032 and 0.964 and 0.935; RPPA Porin.M.V: 0.986 and 1.054 and 1.019; RPPA Puma.R.C: 1.032 and 0.898 and 0.973; RPPA Pyk2_pY402.R.C: 0.958 and 0.968 and 0.955; RPPA RBM15.R.V: 0.860 and 0.890 and 0.867; RPPA RIP3.R.C: 0.858 and 0.945; RPPA RIP.R.C: 0.855 and 1.003; RPPA RPA32.R.V: 1.116 and 1.009 and 0.985; RPPA RPA32_pS4_S8.R.C: 1.499 and 0.874 and 0.876; RPPA RRM1.R.C: 0.796; RPPA RRM2.R.C: 0.716 and 0.950 and 1.085; RPPA RSK1.R.V: 1.235 and 0.841; RPPA RSK.R.C: 1.016 and 0.831 and 0.880; RPPA Rab11.R.C: 0.965 and 1.012 and 0.993; RPPA Rab25.R.V: 0.970 and 0.991 and 0.975; RPPA Rad17_pS645.R.V: 1.158; RPPA Rad23A.R.C: 0.785 and 0.923 and 1.052; RPPA Rad50.R.V: 1.047 and 1.001 and 0.925; RPPA Rad51.R.C: 1.141; RPPA Raptor.R.V: 0.898 and 0.967 and 0.952; RPPA Rb.M.Q: 1.031; RPPA Rb_pS807_S811.R.V: 0.993 and 0.916 and 0.946; RPPA Rheb.M.C: 1.005; RPPA Rictor.R.C: 0.984 and 0.977 and 0.904; RPPA Rictor_pT1135.R.V: 1.006 and 1.049 and 1.026; RPPA S6.M.V: 1.029 and 0.890 and 0.873; RPPA S6_pS235_S236.R.V: 0.665 and 0.702 and 0.771; RPPA S6_pS240_S244.R.V: 1.130 and 0.761 and 0.978; RPPA SCD.M.V: 0.998 and 1.016; RPPA SDHA.R.V: 0.885 and 1.085 and 0.936; RPPA SF2.R.V: 0.975 and 1.048 and 0.992; RPPA SFRP1.R.V: 0.871 and 0.955; RPPA SGK1.R.V: 1.123 and 0.868; RPPA SGK3.R.V: 0.999 and 1.114 and 0.994; RPPA SHP2.R.V: 1.022 and 1.001 and 0.989; RPPA SHP.2_pY542.R.C: 0.948 and 0.890 and 0.849; RPPA SIRPαR.V: 1.018 and 0.987 and 1.021; RPPA SLC1A5.R.C: 0.918 and 0.893 and 1.114; RPPA SOD1.M.V: 1.011 and 1.084 and 0.999; RPPA SOD2.R.V: 1.111 and 1.200 and 1.033; RPPA SOX7.R.V: 1.014 and 0.995; RPPA STING.R.V: 0.837 and 0.985 and 0.890; RPPA Shc_pY317.R.C: 0.828 and 3.472 and 1.241; RPPA Slfn11.G.C: 0.855 and 0.895; RPPA Smac.M.Q: 0.941 and 1.118 and 0.934; RPPA Smad1.R.V: 0.926 and 1.050; RPPA Smad3.R.V: 0.971 and 0.982 (2×); RPPA Smad4.R.V: 1.125 and 1.111 and 0.988; RPPA Snail.M.Q: 0.848 and 1.076 and 1.006; RPPA Sox2.R.V: 0.994 and 0.995 and 0.973; RPPA Sox17.R.V: 1.081 and 0.902; RPPA Src.M.V: 0.986 and 1.228 and 1.023; RPPA Src_pY416.R.V: 1.112 and 0.914; RPPA Src_pY527.R.V: 1.187 and 0.891 and 0.646; RPPA Stat1_pY701.R.V: 1.116 and 1.000 and 0.989; RPPA Stat3.R.C: 0.928 and 0.967 and 1.021; RPPA Stat3_pY705.R.C: 1.145 and 0.998 and 0.863; RPPA Stat5a.R.V: 1.136 and 0.906 and 0.832; RPPA Stathmin.1.R.V: 0.796 and 1.056 and 1.053; RPPA Syk.M.V: 0.989 and 1.109 and 1.102; RPPA Synaptophysin.R.C: 1.199 and 0.991; RPPA TAZ.R.V: 0.707 and 1.122 and 1.046; RPPA TEAD.R.C: 0.724 and 1.098 and 1.080; RPPA TFAM.R.V: 0.916 and 0.953 and 0.872; RPPA TFRC.R.V: 0.933 and 0.837 and 1.007; RPPA TIGAR.R.V: 1.010 and 0.954 and 0.970; RPPA TRAP1.M.V: 0.985; RPPA TRIM24.R.C: 1.099 and 1.139 and 0.970; RPPA TRIM25.R.C: 0.787 and 0.889 and 0.933; RPPA TRIP13.R.V: 1.107 and 0.967 and 1.005; RPPA Tau.M.C: 1.121 and 1.140; RPPA Transglutaminase.M.V: 0.953 and 1.132 and 1.561; RPPA level HLA.DQA1.R.V: 0.942 and 1.249 and 0.908; RPPA level HLA.DR.DP.DQ.DX.R.C: 0.965 and 0.939; RPPA level HMHA1.R.V: 0.904 and 1.030 and 0.992; RPPA level HNRNPK.R.V: 1.000 and 1.157 and 1.048; RPPA level HSP27.M.C: 1.035 and 0.965; RPPA level HSP27_pS82.R.V: 0.973 and 1.006 and 0.985; RPPA level HSP60.R.V: 0.817 and 0.961; RPPA level HSP70.R.C: 0.863 and 0.990 and 0.973; RPPA level Hexokinase.I.R.C: 1.158 and 0.954; RPPA level Hexokinase.II.R.V: 1.125 and 0.921 and 0.919; RPPA level Hif.1αR.C: 1.247 and 1.014 and 0.671; RPPA level Histone.H3.R.V: 0.930 and 0.956 and 0.776; RPPA level Histone.H3_pS10.R.V: 1.200 and 0.894 and 1.027; RPPA level IDO.R.C: 0.882 and 1.060; RPPA level IGF1R_pY1135_Y1136.R.V: 0.904 and 0.968 and 0.956; RPPA level IGFBP2.R.V: 0.540 and 0.765; RPPA level IGFBP3.M.V: 0.727 and 1.079 and 1.122; RPPA level IGFRb.R.C: 0.931 and 1.005 and 0.850; RPPA level IL.6.R.C: 0.856 and 0.994 and 1.019; RPPA level IMP3.R.C: 1.033 and 1.014 and 0.956; RPPA level INPP4b.R.C: 0.980 and 0.827; RPPA level IR.b.R.C: 0.942 and 1.158 and 1.047; RPPA level IRF.1.R.V: 0.733 and 0.989 and 0.863; RPPA level IRF.3.R.V: 1.005 and 1.049 and 1.057; RPPA level IRS1.R.V: 0.956 and 0.975 and 0.990; RPPA level IRS2.R.C: 1.250 and 0.922 and 0.822; RPPA level JAB1.M.C: 0.937 and 1.033; RPPA level JNK2.R.V: 0.765 and 3.367 and 1.426; RPPA level JNK_pT183_Y185.R.C: 0.982 and 0.932 and 1.030; RPPA level Jagged1.R.V: 0.877 and 1.048; RPPA level Jak2.R.V: 0.931 (2×) and 1.019; RPPA level KAP1.R.V: 1.035 and 0.844 and 0.861; RPPA level KEAP1.R.V: 1.174 and 0.839; RPPA level LAD1.R.V: 0.772 and 1.056 and 1.078; RPPA level LC3A.B.R.C: 1.052 and 0.957 and 0.853; RPPA level LCN2.R.V: 2.061 and 0.840 and 0.854; RPPA level LDHA.R.C: 0.770 and 1.150; RPPA level LRP6_pS1490.R.V: 0.906 and 0.988 and 0.894; RPPA level Lasu1.R.V: 1.033 and 1.132 and 1.052; RPPA level Lck.R.V: 0.988 and 0.991 and 0.942; RPPA level Lyn.R.V: 1.113 and 1.221 and 0.942; RPPA level MACC1.R.V: 1.081 and 1.061 and 1.005; RPPA level MAPK_pT202_Y204.R.C: 0.770 and 0.851 and 1.246; RPPA level MCT4.R.V: 0.673 and 0.768 and 1.020; RPPA level MDM2_pS166.R.V: 1.142 and 0.902; RPPA level MEK1.R.V: 2.774 and 0.771 and 0.759; RPPA level MEK1_pS217_S221.R.V: 1.065 and 0.907 and 1.005; RPPA level MEK2.R.V: 0.928 and 1.010 and 0.996; RPPA level MERIT40.R.C: 0.985; RPPA level MERIT40_pS29.R.V: 0.918 and 1.049; RPPA level METTL3.R.V: 1.128 and 1.097 and 0.930; RPPA level MIF.R.C: 1.023 and 1.117 and 1.048; RPPA level MIG6.R.V: 0.921 and 1.139 and 1.007; RPPA level MITF.R.V: 1.105 and 1.065 and 0.952; RPPA level MLH1.M.V: 1.000 and 0.967; RPPA level MLKL.R.V: 0.819 and 0.881 and 1.048; RPPA level MMP2.R.V: 1.026 and 0.968 and 0.958
